Reference: ChEMBL document CHEMBL4342467, “Discovery of a Novel Dual-Target Inhibitor of ERK1 and ERK5 That Induces Regulated Cell Death to Overcome Compensatory Mechanism in Specific Tumor Types” (J Med Chem, 2020)
pIC50: −log10 of the molar value.

Experiments:
[1] = system: MKN-74; experiment: Antiproliferative activity against human MKN74 cells assessed as reduction in cell viability measured after 24 hrs; format: functional, cell-based; conditions: MKN-74, 24 h
[2] = system: HeLa; experiment: Antiproliferative activity against human HeLa cells assessed as reduction in cell viability measured after 24 hrs; format: functional, cell-based
[3] = target: Mitogen-activated protein kinase 3 (Homo sapiens) (UniProt P27361); experiment: Inhibition of ERK1 (unknown origin) at 1 uM by Z'-Lyte assay relative to control
[4] = system: HL-60; experiment: Antiproliferative activity against human HL60 cells assessed as reduction in cell viability measured after 24 hrs; format: functional, cell-based; conditions: HL-60, 24 h
[5] = target: Mitogen-activated protein kinase 1 (Homo sapiens) (UniProt P28482); experiment: Inhibition of ERK2 (unknown origin) at 1 uM by Z'-Lyte assay relative to control
[6] = target: Mitogen-activated protein kinase 7 (Homo sapiens) (UniProt Q13164); experiment: Inhibition of ERK5 (unknown origin) at 1 uM by Z'-Lyte assay relative to control
Sequence of Mitogen-activated protein kinase 7 (Homo sapiens) (Q13164 2-816 limits assumed): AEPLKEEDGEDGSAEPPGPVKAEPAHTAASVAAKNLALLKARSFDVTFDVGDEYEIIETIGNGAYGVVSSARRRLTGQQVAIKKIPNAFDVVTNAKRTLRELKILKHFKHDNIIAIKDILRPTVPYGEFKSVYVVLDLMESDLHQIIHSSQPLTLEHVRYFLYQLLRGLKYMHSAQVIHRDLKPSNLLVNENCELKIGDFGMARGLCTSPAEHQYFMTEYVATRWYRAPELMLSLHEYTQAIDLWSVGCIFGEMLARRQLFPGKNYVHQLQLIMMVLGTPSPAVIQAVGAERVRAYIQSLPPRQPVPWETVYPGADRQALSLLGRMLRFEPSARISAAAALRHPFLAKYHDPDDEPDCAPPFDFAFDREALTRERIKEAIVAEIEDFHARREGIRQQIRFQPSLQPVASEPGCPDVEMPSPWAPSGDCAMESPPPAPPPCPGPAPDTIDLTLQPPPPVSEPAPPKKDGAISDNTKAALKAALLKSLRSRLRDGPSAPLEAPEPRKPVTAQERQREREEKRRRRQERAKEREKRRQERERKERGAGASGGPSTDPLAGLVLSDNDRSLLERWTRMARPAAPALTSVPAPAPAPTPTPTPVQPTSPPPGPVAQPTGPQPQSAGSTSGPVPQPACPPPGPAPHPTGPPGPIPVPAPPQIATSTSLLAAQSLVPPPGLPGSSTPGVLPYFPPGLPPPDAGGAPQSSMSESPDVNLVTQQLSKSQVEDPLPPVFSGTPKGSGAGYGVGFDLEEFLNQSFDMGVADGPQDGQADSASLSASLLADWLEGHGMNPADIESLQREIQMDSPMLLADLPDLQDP

Sequence of Mitogen-activated protein kinase 1 (Homo sapiens) (P28482 whole entry): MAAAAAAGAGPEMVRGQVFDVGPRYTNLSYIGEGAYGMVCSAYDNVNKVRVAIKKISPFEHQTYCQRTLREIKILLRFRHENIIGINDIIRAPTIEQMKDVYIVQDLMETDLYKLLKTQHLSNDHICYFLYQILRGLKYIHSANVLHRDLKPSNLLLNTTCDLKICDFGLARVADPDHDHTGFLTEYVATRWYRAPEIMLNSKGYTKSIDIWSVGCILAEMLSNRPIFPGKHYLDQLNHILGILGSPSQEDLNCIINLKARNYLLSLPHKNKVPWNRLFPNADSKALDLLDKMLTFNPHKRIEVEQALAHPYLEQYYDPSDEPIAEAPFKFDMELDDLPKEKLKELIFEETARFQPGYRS
Sequence of Mitogen-activated protein kinase 3 (Homo sapiens) (P27361 whole entry): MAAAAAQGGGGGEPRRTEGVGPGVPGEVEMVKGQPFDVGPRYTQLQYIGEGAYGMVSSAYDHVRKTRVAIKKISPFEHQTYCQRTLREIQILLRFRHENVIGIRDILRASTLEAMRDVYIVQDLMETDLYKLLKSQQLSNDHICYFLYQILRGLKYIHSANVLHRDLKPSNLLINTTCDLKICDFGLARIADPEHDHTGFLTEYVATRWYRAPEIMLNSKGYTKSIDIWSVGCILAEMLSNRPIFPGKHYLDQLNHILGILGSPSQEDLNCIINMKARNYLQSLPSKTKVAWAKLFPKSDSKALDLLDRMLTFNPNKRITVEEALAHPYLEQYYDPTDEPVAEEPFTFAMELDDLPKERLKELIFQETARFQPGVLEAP

SMILES	pIC50 [1]	pIC50 [2]	inhibition [3]	pIC50 [4]	inhibition [5]	inhibition [6]
COc1ccccc1NC(=S)N1CCc2c(sc(NC(=O)c3ccccc3I)c2C(N)=O)C1	4.38	< 4.30	56.1%	< 4.30	59.6%	42.8%
NC(=O)c1c(NC(=O)c2ccc(C(F)(F)F)cc2)sc2c1CCN(Cc1c(Cl)cccc1Cl)C2	5.07	< 4.30	37.3%	4.97	35.6%	38.7%
NC(=O)c1c(NC(=O)c2ccccc2Cl)sc2c1CCN(Cc1cc(Cl)cc(Cl)c1)C2	4.63	4.71	61%	4.80	59.9%	22.9%
NC(=O)c1c(NC(=O)c2ccccc2Cl)sc2c1CCN(C(=S)Nc1cc(C(F)(F)F)cc(C(F)(F)F)c1)C2	4.83	4.31	89.3%	5.19	88.8%	77.4%
Cc1ccccc1NC(=S)N1CCc2c(sc(NC(=O)c3ccccc3C)c2C(N)=O)C1	< 4.30	< 4.30	48.3%	< 4.30	43%	37.1%
COc1ccccc1C(=O)Nc1sc2c(c1C(N)=O)CCN(C(=S)Nc1ccccc1Cl)C2	4.69	< 4.30	66.3%	4.68	67.1%	53.5%
NC(=O)c1c(NC(=O)c2ccccc2I)sc2c1CCN(C(=S)Nc1ccccc1C(F)(F)F)C2	4.85	4.31	77.5%	4.71	80.7%	64.8%
NC(=O)c1c(NC(=O)c2ccccc2Cl)sc2c1CCN(C(=S)Nc1ccc(C(F)(F)F)cc1)C2	5.15	< 4.30	80.5%	5.12	54.4%	57.4%
NC(=O)c1c(NC(=O)c2ccc(C(F)(F)F)cc2)sc2c1CCN(Cc1ccc(Cl)cc1)C2	< 4.30	< 4.30	47.8%	< 4.30	43.3%	61.1%
NC(=O)c1c(NC(=O)c2ccc[nH]2)sc2c1CCN(C(=S)Nc1cccnc1)C2	< 4.30	4.32	74.4%	< 4.30	79.7%	48.6%
NC(=O)c1c(NC(=O)c2ccc(C(F)(F)F)cc2)sc2c1CCN(C(=S)Nc1ccccc1Cl)C2	4.78	4.36	75.6%	4.44	79%	57.5%
NC(=O)c1c(NC(=O)c2ccccc2Cl)sc2c1CCN(C(=S)Nc1ccccc1I)C2	5.58	4.54	88%	5.35	87.3%	81%
NC(=O)c1c(NC(=O)c2ccccc2Cl)sc2c1CCN(Cc1ccccc1)C2	4.84	4.42	60.1%	4.92	62.9%	63.7%
NC(=O)c1c(NC(=O)c2ccccc2Cl)sc2c1CCN(C(=S)Nc1ccccc1C(F)(F)F)C2	5.73	4.57	83.6%	4.97	85.7%	76.6%
NC(=O)c1c(NC(=O)c2ccc(C(F)(F)F)cc2)sc2c1CCN(C(=S)Nc1ccc(C(F)(F)F)cc1)C2	4.91	< 4.30	82.5%	5.26	79.7%	57.9%
Cc1ccc(C(=O)Nc2sc3c(c2C(N)=O)CCN(C(=S)Nc2cc(C(F)(F)F)cc(C(F)(F)F)c2)C3)cc1	4.83	4.77	77.4%	4.93	80.1%	70.8%
NC(=O)c1c(NC(=O)c2ccc(C(F)(F)F)cc2)sc2c1CCN(Cc1ccccc1F)C2	4.57	< 4.30	72.2%	< 4.30	76.8%	56.8%
NC(=O)c1c(NC(=O)c2ccccc2Cl)sc2c1CCN(C(=S)Nc1ccccc1Br)C2	4.96	4.61	90.9%	5.04	86.9%	88.5%
NC(=O)c1c(NC(=O)c2ccccc2Cl)sc2c1CCN(C(=S)Nc1ccccc1F)C2	4.90	4.54	88.4%	5.30	82.8%	70.7%
CSc1ccccc1NC(=S)N1CCc2c(sc(NC(=O)c3ccccc3Cl)c2C(N)=O)C1	4.86	4.36	69.5%	4.84	64.6%	52.6%

SMILES	pIC50 [1]	pIC50 [2]	inhibition [3]	pIC50 [4]	inhibition [5]	inhibition [6]
NC(=O)c1c(NC(=O)c2ccccc2Cl)sc2c1CCN(Cc1c(Cl)cccc1Cl)C2	5.32	4.54	57.8%	5.31	78.1%	61.9%
NC(=O)c1c(NC(=O)c2ccccc2Br)sc2c1CCN(C(=S)Nc1ccccc1C(F)(F)F)C2	4.61	4.40	79.3%	4.56	72.1%	78.6%
Cc1ccccc1NC(=S)N1CCc2c(sc(NC(=O)c3ccccc3Cl)c2C(N)=O)C1	4.93	< 4.30	68.4%	4.65	72.8%	59.3%
NC(=O)c1c(NC(=O)c2ccc(C(F)(F)F)cc2)sc2c1CCN(C(=S)Nc1cc(C(F)(F)F)cc(C(F)(F)F)c1)C2	4.86	4.31	79.4%	4.79	66%	54.2%
Cc1ccccc1C(=O)Nc1sc2c(c1C(N)=O)CCN(C(=S)Nc1ccccc1C(F)(F)F)C2	4.76	< 4.30	72%	4.64	76.9%	60.1%
NC(=O)c1c(NC(=O)c2cccc([N+](=O)[O-])c2)sc2c1CCN(Cc1ccc(Cl)cc1Cl)C2	4.78	4.48	67.2%	4.70	65.3%	77.9%
NC(=O)c1c(NC(=O)c2ccc(C(F)(F)F)cc2)sc2c1CCN(C(=O)Nc1ccccc1Cl)C2	4.36	< 4.30	78.3%	< 4.30	77.6%	62.2%
CCCCCC(=O)Nc1sc2c(c1C(N)=O)CCN(C(=S)NCCCC)C2	< 4.30	< 4.30	60.5%	< 4.30	68.5%	43.3%
NC(=O)c1c(NC(=O)c2ccccc2Cl)sc2c1CCN(C(=S)Nc1cccnc1)C2	4.41	< 4.30	41.9%	4.47	45.4%	34.9%
NC(=O)c1c(NC(=O)c2ccccc2Br)sc2c1CCN(C(=S)Nc1ccccc1Cl)C2	4.89	4.33	87.7%	4.84	89.7%	80.5%
NC(=O)c1c(NC(=O)c2ccccc2Cl)sc2c1CCN(Cc1ccc(Cl)cc1Cl)C2	4.79	4.68	68.9%	5.10	66.6%	63.1%
NC(=O)c1c(NC(=O)c2ccccc2Cl)sc2c1CCN(C(=O)Nc1cc(C(F)(F)F)cc(C(F)(F)F)c1)C2	4.61	4.41	91%	4.57	89.2%	80.3%
NC(=O)c1c(NC(=O)c2ccccc2Cl)sc2c1CCN(Cc1ccccc1Cl)C2	5.35	4.56	61.4%	5.54	65.2%	65.1%
NC(=O)c1c(NC(=O)c2ccccc2Cl)sc2c1CCN(Cc1ccc([N+](=O)[O-])cc1)C2	4.50	4.34	66.2%	4.94	63.1%	65%
NC(=O)c1c(NC(=O)c2ccccc2C(F)(F)F)sc2c1CCN(C(=S)Nc1ccccc1Cl)C2	4.66	4.33	78.8%	4.76	80.9%	56.5%
NC(=O)c1c(NC(=O)c2cccc([N+](=O)[O-])c2)sc2c1CCN(C(=O)Nc1ccccc1Cl)C2	4.64	< 4.30	71.3%	4.73	60.4%	65.7%
NC(=O)c1c(NC(=O)c2ccccc2Br)sc2c1CCN(C(=S)Nc1ccccc1Br)C2	4.86	4.61	80.9%	4.76	82.1%	88.4%
COc1ccc(NC(=S)N2CCc3c(sc(NC(=O)c4ccccc4Cl)c3C(N)=O)C2)cc1	4.71	4.44	78.1%	4.80	68.7%	55.7%
NC(=O)c1c(NC(=O)c2ccccc2I)sc2c1CCN(C(=S)Nc1ccccc1Cl)C2	4.76	< 4.30	83.5%	5.07	85.8%	80.4%
CSc1ccccc1C(=O)Nc1sc2c(c1C(N)=O)CCN(C(=S)Nc1ccccc1Cl)C2	5.18	4.46	67.2%	4.52	63.4%	49.1%
